In general, IC50 refers to the concentration that inhibits the measured activity by half. A low value points to higher potency.

The values below come from BindingDB's records for doi:10.1021/jm00076a005 (Glaxo Group Research, 1993).

The assay concerns the target T1, Gag-Pol polyprotein [588-1027]/[588-1147] (Human immunodeficiency virus 1, UniProt P04585).
T1 construct: 588-1027; 588-1147
In words: HIV-1 RT Assay. From the text: The IC50 of reverse transcriptase is the concentration that inhibits 50% of recombinant HIV-1 RT RNA-directed DNA polymerase activity in vitro.

`Cc1nc(CCCCCCC(=O)c2ccccc2)n2nc(-n3cncc3C)ccc12` [7-[5-methyl-2-(5-methyl-1H-imidazol-1-yl)imidazo[1,5-a]pyridazin-7-yl]-1-phenylheptan-1-one] had an IC50 of 100 nM.

Consider `Cc1nc(CCCCCO)n2nc(Cl)ccc12` [5-{2-chloro-5-methylimidazo[1,5-a]pyridazin-7-yl}pentan-1-ol], for which 100000 nM corresponded to half-maximal inhibition (pH 8, 37 °C) (IC50).

As to `Cc1nc(CCCCCCC(=O)c2ccccc2)n2nc(-n3cncn3)ccc12` [7-[5-methyl-2-(1H-1,2,4-triazol-1-yl)imidazo[1,5-a]pyridazin-7-yl]-1-phenylheptan-1-one], half-maximal inhibition (IC50) required 100 nM. In other words, the sub-micromolar range.
